Measurements: patent US7273884B2, “Method of treating tremors” (Eisai, Inc., priority 2002, dated 2007)
Read-outs that look alike come from different tables or passages of the source.

What was measured:
NMDA receptor = details: noncompetitive NMDA channel blocker; cited from earlier work
[1] = general clinical practice, first line therapy; cited from earlier work
[2] = Harmaline-induced tremor in rats (tremor monitoring cage, 8-12 Hz vs 0-15 Hz motion); type: in vivo, Sprague-Dawley rats
Method: Six female Sprague-Dawley rats were treated with i.p. saline and placed in a tremor monitoring cage for 30 minutes of baseline recording. They then received 10 mg/kg harmaline i.p. to induce tremor. Recording of the harmaline-induced tremor began 15 minutes after the harmaline injection and continued for up to 2½ hours.
A transducer connected to the cage floor recorded motion, which was processed by Fourier transform and spectral analysis. Motion at 8-12 Hz (the range in which the tremor occurs) was compared to the full spectrum of motion recorded (0-15 Hz).
To analyze the reduction of tremor caused by treatment agents, a Convuls-1 pressure sensitive transducer system is used. Convuls-1 is designed to objectively quantify convulsive or tremorous activity in small laboratory animals. An unrestrained animal is placed within a chamber that resides upon a sensing platform. […] The static force exerted by the weight of the platform and animal is not recorded. […] Output power is recorded digitally and analyzed for change of frequency and power using the Dataware A/D converted and software.
The data is analyzed in one minute bins. For each bin, the total power of 0-15 Hz and the total power at 8-12 Hz is calculated. The data is then converted into Excel and the ratio of 8-12 Hz/0-15 Hz power is calculated. […]

[3] = delivered intraperitoneally; severity dose dependent; cited from earlier work
[4] = Zonisamide treatment of tremor patients at an outpatient neurology clinic; type: in vivo, human
Method: Zonisamide was used in treatment of patients at an outpatient neurology clinic, which provided the following results. […] For intractable essential tremor, 10 patients (age range: 46 to 82) were identified who were either intolerant to, or failed on, primidone or propranolol therapy. The dosage of zonisamide to these patients was 100 mg to a maximum of 200 mg once daily. The study dose was continued for at least 12 weeks unless discontinued earlier due to side effects.

[5] = kindled rat; cited from earlier work
[6] = cats, electrical stimulation of the visual cortex; cited from earlier work
[7] = rats, cortical tungstic acid gel; cited from earlier work
[8] = cats, cortical freezing; cited from earlier work
[9] = system: voltage-gated sodium channels; details: in vitro; cited from earlier work
T-type Ca2+ currents = details: in vitro; cited from earlier work
[10] = system: GABA/benzodiazepine receptor ionophore complex; details: in vitro; does not produce changes in chloride flux; cited from earlier work
[11] = system: cultured mouse spinal cord neurons; details: 10-30 μg/mL; cited from earlier work
rat hippocampal slices = details: 10-30 μg/mL; cited from earlier work
[12] = system: dopaminergic and serotonergic neurotransmission; details: in vivo microdialysis; cited from earlier work
[13] = 50-200 mg/day in addition to anti-Parkinson Disease drug; cited from earlier work
[14] = one patient; treatment with zonisamide, clonazepam and valpolate; cited from earlier work
[15] = patients; cited from earlier work
[16] = rats; cited from earlier work
[17] = patients at outpatient neurology clinic

## C[C@]12N[C@H](Cc3ccccc31)c1ccccc12 [MK-801]
NMDA receptor
  tremorogenic actions of harmaline: could block the tremorogenic actions of harmaline

## CC(C)NCC(O)COc1cccc2ccccc12 (stereo not drawn) [propranolol]
[1]
  efficacy in ET: proven efficacy in ET

## COc1ccc2c3c([nH]c2c1)C(C)=NCC3 [harmaline]
[2]; 10 mg/kg harmaline i.p., female Sprague-Dawley rats
  stability of tremor-inducing effect: stable for over two hours
[2]; harmaline-treated rats (control rats 15-30%)
  ratio of 8-12 Hz/0-15 Hz power: 60-80%
[3]
  effective dose range for tremor induction: 10 to 50 mg/kg

## NS(=O)(=O)Cc1noc2ccccc12 [zonisamide, 1,2-benzisoxazole-3-methanesulfonamide]
[4]; Parkinsonian tremor
  patients responding: two out of four responded
[4]; intractable essential tremor responders, 100 mg to 200 mg once daily
  quality of life: reported a better quality of life
[4]; intractable essential tremor, 10 patients intolerant to or failed on primidone or propranolol, 100 mg to 200 mg once daily, at least 12 weeks
  patients responding by reduction in tremor: four patients responded by reduction in tremor of greater than 50%
[4]; mixed tremor (non-essential, secondary to trauma or multiple sclerosis)
  patients responding: two out of two patients responded
[4]; multi-infarct-related (2 or more minor strokes) tremor
  patients responding: one out of two patients responded
[4]; [17]
  adverse reactions experienced in treatment: GI upset, somnolence and skin rash
  kidney stones and anhydrosis (lack of sweating): not encountered
[5]
  threshold for generalized seizures: increase in threshold for generalized seizures
[6]
  duration of cortical focal seizures: reduction in the duration of cortical focal seizures
[7]
  interictal spikes and secondarily generalized seizures: suppressed both interictal spikes and the secondarily generalized seizures
[8]
  interictal spikes and secondarily generalized seizures: suppressed both interictal spikes and the secondarily generalized seizures
[9]
  effect on voltage-gated sodium channels: blocks voltage-gated sodium channels
T-type Ca2+ currents
  effect on voltage-dependent, transient inward calcium currents: reduces voltage-dependent, transient inward calcium currents
[10]
  binding to GABA/benzodiazepine receptor ionophore complex: binds to the GABA/benzodiazepine receptor ionophore complex in an allosteric fashion
[11]
  postsynaptic GABA or glutamate responses: without affecting
  synaptically-driven electrical activity: suppresses synaptically-driven electrical activity
Rat hippocampal slices
  neuronal or glial uptake of [3H]-GABA: without affecting
[12]
  dopaminergic and serotonergic neurotransmission: facilitates both dopaminergic and serotonergic neurotransmission
[13]
  symptoms of patients: showed lessening of symptoms
[14]
  symptoms of cortical myoclonic tremor: improved
[15]
  tremor developed after administration: two patients developed resting and postural hand tremor
[16]
  oral dose effective in anticonvulsant models: 20 mg/kg
